In BigSolDB 2.1:

Cc1cnc(NC(=O)C2=C(O)c3ccccc3S(=O)(=O)N2C)s1
solubility (mole fraction)
Conditions	288.15 K	293.15 K	298.15 K	303.15 K	308.15 K
in ethanol	2.2e-05	2.55e-05	3.2e-05	3.95e-05	5.3e-05
in ethylene glycol	2.53e-05	2.59e-05	3.02e-05	2.91e-05	3.06e-05
in propylene glycol	4.49e-05	4.52e-05	4.74e-05	5.6e-05	6.61e-05
in water	2e-07	3e-07	4e-07	9e-07	1.1e-06
